Measurements reported in the NIST ThermoML archive (doi:10.1016/j.jct.2017.11.007).
± gives the expanded uncertainty stated by the source.

Assay: mn = molality of the nth substance listed, in mol/kg
Conditions: 74.66 kPa, Liquid; for speed of sound: Frequency=3 MHz, Single path-length method; for mass density: Vibrating tube method

Cc1ccnc([N-]S(=O)(=O)c2ccc(N)cc2)n1.[Na+] + O
Conditions | mass density, 278.15 K [kg/m3] | mass density, 283.15 K [kg/m3] | mass density, 288.15 K [kg/m3] | speed of sound, 278.15 K [m/s] | speed of sound, 283.15 K [m/s] | speed of sound, 288.15 K [m/s] | speed of sound, 293.15 K [m/s]
m1 = 0.005 | 1000.56 ± 0.11 | 1000.28 ± 0.11 | 999.679 ± 0.11 | 1428.1 ± 1.2 | 1448.9 ± 1.2 | 1467.5 ± 1.2 | 1483.7 ± 1.2
m1 = 0.008 | 1000.91 ± 0.11 | 1000.63 ± 0.11 | 1000.02 ± 0.11 | 1428.7 ± 1.2 | 1449.4 ± 1.2 | 1467.8 ± 1.2 | 1484 ± 1.2
m1 = 0.01 | 1001.15 ± 0.11 | 1000.87 ± 0.11 | 1000.25 ± 0.11 | 1429.2 ± 1.2 | 1449.8 ± 1.2 | 1468.2 ± 1.2 | 1484.4 ± 1.2
m1 = 0.01486 | 1001.72 ± 0.11 | 1001.42 ± 0.11 | 1000.8 ± 0.11 | 1430.2 ± 1.2 | 1450.8 ± 1.2 | 1469.3 ± 1.2 | 1485.3 ± 1.2
m1 = 0.02002 | 1002.33 ± 0.11 | 1002.02 ± 0.11 | 1001.39 ± 0.11 | 1431 ± 1.2 | 1451.6 ± 1.2 | 1469.9 ± 1.2 | 1486.1 ± 1.2
m1 = 0.025 | 1002.91 ± 0.11 | 1002.6 ± 0.11 | 1001.96 ± 0.11 | 1432.2 ± 1.2 | 1452.7 ± 1.2 | 1470.9 ± 1.2 | 1487 ± 1.2
m1 = 0.03001 | 1003.5 ± 0.11 | 1003.18 ± 0.11 | 1002.53 ± 0.11 | 1433.4 ± 1.2 | 1453.7 ± 1.2 | 1471.8 ± 1.2 | 1487.8 ± 1.2
m1 = 0.035 | 1004.08 ± 0.11 | 1003.75 ± 0.11 | 1003.09 ± 0.11 | 1434.2 ± 1.2 | 1454.6 ± 1.2 | 1472.7 ± 1.2 | 1488.6 ± 1.2
m1 = 0.03931 | 1004.59 ± 0.11 | – | – | 1435.5 ± 1.2 | – | – | –
m1 = 0.04002 | – | 1004.33 ± 0.11 | 1003.66 ± 0.11 | – | 1455.6 ± 1.2 | 1473.7 ± 1.2 | 1489.5 ± 1.2
m1 = 0.04499 | – | – | 1004.23 ± 0.11 | – | – | 1474.6 ± 1.2 | 1490.3 ± 1.2
m1 = 0.045 | 1005.25 ± 0.11 | 1004.9 ± 0.11 | – | 1436.4 ± 1.2 | 1456.7 ± 1.2 | – | –
m1 = 0.04968 | – | 1005.43 ± 0.11 | – | – | 1457.4 ± 1.2 | – | –
m1 = 0.05 | 1005.83 ± 0.11 | – | 1004.8 ± 0.11 | 1437.5 ± 1.2 | – | 1475.4 ± 1.2 | 1491.2 ± 1.2
m1 = 0.05501 | – | – | 1005.37 ± 0.11 | – | – | 1476.5 ± 1.2 | 1492 ± 1.2
m1 = 0.05502 | 1006.42 ± 0.11 | 1006.05 ± 0.11 | – | 1438.5 ± 1.2 | 1458.5 ± 1.2 | – | –
m1 = 0.05998 | 1007 ± 0.11 | 1006.62 ± 0.11 | 1005.94 ± 0.11 | 1439.4 ± 1.2 | 1459.4 ± 1.2 | 1477.2 ± 1.2 | 1492.8 ± 1.2
